Measurements reported in ChEMBL document CHEMBL1157429, “Design of a fluorescence polarization assay platform for the study of human Hsp70” (Bioorg Med Chem Lett, 2008).
The source made the active and inactive calls. No cut-off for these calls is given here.

How the values were obtained:
[1] = Binding affinity to human recombinant Hsp70 after 24 hrs by fluorescence polarization assay
Homo sapiens [2] = species on record: Homo sapiens; experiment: Decrease in binding affinity to human recombinant Hsp70 at 5 nM by fluorescence polarization assay in presence of ATP
[3] = target: Heat shock protein HSP90 (Homo sapiens) (UniProt P07900+P08238); experiment: Binding affinity to human recombinant Hsp90 by fluorescence polarization assay; assay type: protein assay
Homo sapiens [4] = species on record: Homo sapiens; experiment: Binding affinity to human Hsp70 assessed as activation of single-turnover ATPase activity at 8 uM
[5] = Binding affinity to Escherichia coli Hsp70 by fluorescence polarization assay

Kd [1] | Activity (Homo sapiens [2]) | Activity [3] | Activity (Homo sapiens [4]) | Structure (SMILES) | Kd [5]
426 nM | Active | inactive | Dose-dependent effect | CC(C)C[C@H](NC(=O)[C@H](C)NC(=O)CCCCCNC(=S)Nc1ccc(-c2c3ccc(=O)cc-3oc3cc(O)ccc23)c(C(=O)O)c1)C(=O)N[C@@H](CC(C)C)C(=O)N[C@@H](CC(C)C)C(=O)N[C@@H](CO)C(=O)N[C@@H](C)C(=O)N1CCC[C@H]1C(=O)N[C@@H](CCCNC(=N)N)C(=O)N[C@@H](CCCNC(=N)N)C(=O)O | 
 |  |  |  | CC(C)C[C@H](NC(=O)[C@H](C)N)C(=O)N[C@@H](CC(C)C)C(=O)N[C@@H](CC(C)C)C(=O)N[C@@H](CO)C(=O)N[C@@H](C)C(=O)N1CCC[C@H]1C(=O)N[C@@H](CCCNC(=N)N)C(=O)N[C@@H](CCCNC(=N)N)C(=O)O | 400 nM
